Measurements as given in patent US20240398771A1, “TREATMENT OF SCLERODERMA AND RAYNAUD'S SYNDROME” (Aisa Pharma, Inc., priority 2023, published 2024).

Columns and labels:
[1] = test system: participants with SSc-RP; assay: SHAQ Visual Analog Scale - Finger Ulcers; assay type: in vivo, human; parameters: Finger Ulcers, Baseline, Mean / Finger Ulcers, Baseline, Median / Finger Ulcers, Change from Baseline, Mean / Finger Ulcers, Change from Baseline, Median: scale not given here; conditions: for Finger Ulcers, Baseline, Mean / Finger Ulcers, Baseline, Median / Finger Ulcers, Change from Baseline, Median / Finger Ulcers, In Clinic Visit (Day 12), Median: Modified ITT, Part A
Description: Results: Patients in the study were administered the Scleroderma Health Assessment Questionnaire (SHAQ) at the time of study entry and during clinic visits following the treatment period. The study is a two-part, parallel arm design, prospective, double-blind, randomized study conducted in Australia (Flinders Medical Center). 27 patients were randomized into the first phase of the study, following which a DSMB meeting was held, which reviewed data on the primary study endpoint and key Raynaud's secondary endpoints. Data on the SHAQ was not available for the DSMB to review. The mITT population, in which any data was available post treatment was 24 patients was the analysis population for this first part of the study. The second part (i.e., part B) of the study will randomize 36 patients in a double blind, randomized, prospective, placebo controlled, crossover study. In the first part (i.e., Part A) of the study for which data is presented, patients were randomized into 6 groups, cilnidipine at two doses (10 and 20 mg) alone and in combination with tadalafil 5 mg, tadalafil 5 mg alone, and placebo. […] The DSMB recommended that the study proceed into its double blind prospective cross overpowered second phase and compare cilnidipine 20 mg alone to placebo. […] Cilnidipine treatment may reduce patient-reported SSc disease disability compared to placebo • b. Cilnidipine treatment may reduce patient-reported SSc disease alternative disability compared to placebo • c. Cilnidipine treatment may reduce patient-reported SSc disease pain* compared to placebo • d. Cilnidipine treatment may reduce patient-reported SSc disease severity compared to placebo • e. Cilnidipine treatment may reduce patient-reported SSc disease skin ulcer severity rating compared to placebo • f Cilnidipine treatment may reduce patient-reported SSc disease breathing difficulty compared to placebo • g. […] SSc disease pain comprises not only pain from Raynaud's but joint pain, headache, odynophagia, back pain, pain from skin ulceration, and neuropathic pain). Table E includes results of the Scleroderma Health Assessment Questionnaire.

[2] = test system: participants with SSc-RP; assay: Average duration of weekly symptomatic RP attacks (minutes); assay type: in vivo, human; conditions: Excluding Outliers, ITT Part A, Baseline RCS subgroup 1 (Table B-4, stratum not given)
Source text: The relevant metrics measured by this tool daily are: • Study medication • SSc-RP symptoms (Reporting an attack including duration of attack) • Severity of the attack considering all symptoms of the attack e.g. tingling, numbness, pain, color changes (VAS 0-10 cm scale) • Participant's location at the time of the attack (inside home/outside home) • Selecting symptoms experienced during the attack (tingling, numbness, pain, color changes, other) • Pain rating during the attack (11-point Likert scale) • The RCS based on how much difficulty participants had with Raynaud's today, how many attacks the participant had, and how long they lasted. Participants will also be asked to consider how much pain, numbness, or other symptoms the Raynaud's caused in fingers (including painful sores), and how much the Raynaud's alone affected the use of hands today (VAS 0-10 cm scale).
The absolute change in average duration of weekly RP attacks from baseline to the end of each dosing period was and will be a secondary outcome variable. The sponsor-developed participant-informed diary was and will be used to record data. Average duration of weekly RP attacks is defined as the total duration of RP attacks divided by total number of RP attacks within the last 7 days of each dosing period. Total duration of RP attacks during the last 7 days of screening period divided by the total number of RP attacks will be used as baseline for the analysis of all periods. The variable will be calculated similar to frequency data as before.

[3] = last 7 days of dosing period, listed as Cilnidipine 10 mg
[4] = last 7 days of dosing period, listed as Cilnidipine 20 mg
[5] = last 7 days of dosing period, listed as Pooled Cilnidipine
[6] = last 7 days of screening period, listed as Cilnidipine 10 mg
[7] = last 7 days of screening period, listed as Cilnidipine 20 mg

COCCOC(=O)C1=C(C)NC(C)=C(C(=O)OC/C=C/c2ccccc2)C1c1cccc([N+](=O)[O-])c1 (stereo not drawn) [Cilnidipine, 1,4-dihydro-2,6-dimethyl,4-(3-nitrophenyl)-3,5-pyridinedicarboxylic acid 2-methoxyethyl (2 E)-3-phenyl-2-propenyl ester]
Finger Ulcers, Baseline, Mean ([1]; Cilnidipine 10 mg): 0.700 | Finger Ulcers, Baseline, Median ([1]; Cilnidipine 10 mg): 0.500 | Finger Ulcers, Change from Baseline, Median ([1]; Cilnidipine 10 mg): −0.350 | Finger Ulcers, In Clinic Visit (Day 12), Median ([1]; Cilnidipine 10 mg): 0.000 | Finger Ulcers, Baseline, Mean ([1]; Cilnidipine 20 mg): 1.800 | Finger Ulcers, Baseline, Median ([1]; Cilnidipine 20 mg): 0.300 | Finger Ulcers, Change from Baseline, Median ([1]; Cilnidipine 20 mg): 0.000 | Finger Ulcers, In Clinic Visit (Day 12), Median ([1]; Cilnidipine 20 mg): 0.700 | patient-reported SSc disease skin ulcer severity rating compared to placebo ([1]; Example 4, SHAQ, mITT Part A): may reduce | Average Duration of weekly symptomatic RP attacks, Max [2, 3]: 31.6, 31.6 minutes | Average Duration of weekly symptomatic RP attacks, Mean [2, 3]: 31.64 min | Average Duration of weekly symptomatic RP attacks, Min [2, 3]: 31.6, 31.6 minutes | Average Duration of weekly symptomatic RP attacks, Q3 [2, 3]: 31.64, 31.64 minutes | Average duration of weekly symptomatic RP attacks, Change from Baseline, Max [2, 3]: −16.7, −16.7 minutes | Average duration of weekly symptomatic RP attacks, Change from Baseline, Min [2, 3]: −16.7, −16.7 minutes | Average duration of weekly symptomatic RP attacks, Change from Baseline, Q1 [2, 3]: −16.74, −16.74 minutes | Average duration of weekly symptomatic RP attacks, Percent Change from Baseline, Max [2, 3]: −34.6, −34.6% | Average Duration of weekly symptomatic RP attacks [2, 4]: 3.0 min | Average Duration of weekly symptomatic RP attacks, Max [2, 4]: 30.5 min | Average Duration of weekly symptomatic RP attacks, Q1 [2, 4]: 3.00 min | Average Duration of weekly symptomatic RP attacks, Q3 [2, 4]: 30.45 min | Average duration of weekly symptomatic RP attacks, Change from Baseline [2, 4]: -10.3 min | Average duration of weekly symptomatic RP attacks, Change from Baseline, Max [2, 4]: 4.1 min | Average duration of weekly symptomatic RP attacks, Change from Baseline, Mean [2, 4]: -3.13 min | Average duration of weekly symptomatic RP attacks, Change from Baseline, Median [2, 4]: -3.13 min | Average duration of weekly symptomatic RP attacks, Change from Baseline, Q1 [2, 4]: -10.33 min | Average duration of weekly symptomatic RP attacks, Change from Baseline, Q3 [2, 4]: 4.07 min | Average duration of weekly symptomatic RP attacks, Percent Change from Baseline, Max [2, 4]: 15.4% | Average duration of weekly symptomatic RP attacks, Percent Change from Baseline, Mean [2, 4]: −31.05% | Average duration of weekly symptomatic RP attacks, Percent Change from Baseline, Median [2, 4]: −31.05% | Average duration of weekly symptomatic RP attacks, Percent Change from Baseline, Min [2, 4]: −77.5% | Average duration of weekly symptomatic RP attacks, Percent Change from Baseline, Q1 [2, 4]: −77.50% | Average duration of weekly symptomatic RP attacks, Percent Change from Baseline, Q3 [2, 4]: 15.41% | Average Duration of weekly symptomatic RP attacks [2, 5]: 3.0 min | Average Duration of weekly symptomatic RP attacks, Max [2, 5]: 31.6 min | Average Duration of weekly symptomatic RP attacks, Q1 [2, 5]: 3.00 min | Average duration of weekly symptomatic RP attacks, Change from Baseline [2, 5]: -16.7 min | Average duration of weekly symptomatic RP attacks, Change from Baseline, Max [2, 5]: 4.1 min | Average duration of weekly symptomatic RP attacks, Change from Baseline, Mean [2, 5]: -7.67 min | Average duration of weekly symptomatic RP attacks, Change from Baseline, Q1 [2, 5]: -16.74 min | Average duration of weekly symptomatic RP attacks, Change from Baseline, Q3 [2, 5]: 4.07 min | Average duration of weekly symptomatic RP attacks, Percent Change from Baseline, Max [2, 5]: 15.4% | Average duration of weekly symptomatic RP attacks, Percent Change from Baseline, Mean [2, 5]: −32.23% | Average duration of weekly symptomatic RP attacks, Percent Change from Baseline, Median [2, 5]: −34.60% | Average duration of weekly symptomatic RP attacks, Percent Change from Baseline, Min [2, 5]: −77.5% | Average duration of weekly symptomatic RP attacks, Percent Change from Baseline, Q1 [2, 5]: −77.50% | Average duration of weekly symptomatic RP attacks, Percent Change from Baseline, Q3 [2, 5]: 15.41% | Average duration of weekly symptomatic RP attacks, Baseline, Max [2, 6]: 48.4, 48.4 minutes | Average duration of weekly symptomatic RP attacks, Baseline, Mean [2, 6]: 48.38 min | Average duration of weekly symptomatic RP attacks, Baseline, Median [2, 6]: 48.38 min | Average duration of weekly symptomatic RP attacks, Baseline, Min [2, 6]: 48.4, 48.4 minutes | Average duration of weekly symptomatic RP attacks, Baseline, Q1 [2, 6]: 48.38, 48.38 minutes | Average duration of weekly symptomatic RP attacks, Baseline, Q3 [2, 6]: 48.38, 48.38 minutes | Average duration of weekly symptomatic RP attacks, Baseline [2, 7]: 13.3 min | Average duration of weekly symptomatic RP attacks, Baseline, Max [2, 7]: 26.4 min | Average duration of weekly symptomatic RP attacks, Baseline, Mean [2, 7]: 19.86 min | Average duration of weekly symptomatic RP attacks, Baseline, Median [2, 7]: 19.86 min
